Results as given in patent US9914732B2, “Diazabicyclo[4.3.1]decane derivatives for treatment of psychiatric disorders” (Max-Planck-Gesellschaft zur Forderung der Wissenschaften …, priority 2014, dated 2018).

Columns and labels:
FKBP51 = molecular target: T1, FKBP51 (Homo sapiens, UniProt Q13451); assay: Fluorescence polarization (FP) assay, binding to the FK506-binding domain of FKBP51; conditions: FK506-binding domain of FKBP51 (FKBP51FK1), competition with fluorescent ligand 2b
T1 sequence (Q13451 42-130 limits assumed): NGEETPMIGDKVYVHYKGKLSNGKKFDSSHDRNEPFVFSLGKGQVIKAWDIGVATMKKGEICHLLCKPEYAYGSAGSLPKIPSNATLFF
Method in brief: (§1)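 Competitive FP with fluorescent ligand 2b at 20 nM (2× concentration) and FK1 domain at 280 nM (FKBP51) or 400 nM (FKBP52) in 20 mM HEPES pH 8, 0.01% Triton-X100. Anisotropy read after 30 min at room temperature (ex 485, em 535 nm), in duplicate; IC50 by four-parameter fit, Ki via Wang competitive equation.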

FKBP52 = molecular target: T2, FKBP52 (Homo sapiens, UniProt Q02790); assay: Fluorescence polarization (FP) assay, binding to the FK506-binding domain of FKBP52; conditions: FK506-binding domain of FKBP52 (FKBP52FK1), competition with fluorescent ligand 2b
T2 sequence (Q02790 50-138 limits assumed): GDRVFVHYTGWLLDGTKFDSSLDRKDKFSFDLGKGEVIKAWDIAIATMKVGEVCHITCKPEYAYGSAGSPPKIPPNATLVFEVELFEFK
Method in brief: as §1

Structure (SMILES) | Ki (FKBP51) | Ki (FKBP52)
C#CCN1C[C@H](COC)[C@H]2CCC[C@@H](C1=O)N2S(=O)(=O)c1cc(Cl)cc(C(=O)OC)c1 [Compound N12, methyl 3-chloro-5-(((1S,5S,6R)-5-(methoxymethyl)-2-oxo-3-(prop-2-yn-1-yl)-3,10-diazabicyclo[4.3.1]decan-10-yl)sulfonyl)benzoate] | 0.1 to 0.5 µM | 0.1 to 0.5 µM
C#CCN1CC(C=C)C2CCCC(C1=O)N2S(=O)(=O)c1cc(Cl)cc(Cl)c1 (stereo in doubt) [Compound J12, (1S,5R,6R)-10-((3,5-dichlorophenyl)sulfonyl)-3-(prop-2-yn-1-yl)-5-vinyl-3,10-diazabicyclo[4.3.1]decan-2-one] | 0.1 to 0.5 µM | 0.1 to 0.5 µM
C=CC1CN(Cc2ccccn2)C(=O)C2CCCC1N2S(=O)(=O)c1ccc2ncsc2c1 (stereo in doubt) [Compound K9, (1S,5R,6R)-10-(benzo[d]thiazol-6-ylsulfonyl)-3-(pyridin-2-ylmethyl)-5-vinyl-3,10-diazabicyclo[4.3.1]decan-2-one] | 0.1 to 0.5 µM | 0.1 to 0.5 µM
C=CC1CN(Cc2ccccn2)C(=O)C2CCCC1N2S(=O)(=O)c1nc2ccccc2[nH]1 (stereo in doubt) [Compound K29, (1S,5R,6R)-10-((1H-benzo[d]imidazol-2-yl)sulfonyl)-3-(pyridin-2-ylmethyl)-5-vinyl-3,10-diazabicyclo[4.3.1]decan-2-one] | ≤ 0.1 µM | ≤ 0.1 µM
C=CC1CN(Cc2ccccn2)C(=O)C2CCCC1N2S(=O)(=O)c1ccc2c(c1)CCO2 (stereo in doubt) [Compound K12, (1S,5R,6R)-10-((2,3-dihydrobenzofuran-5-yl)sulfonyl)-3-(pyridin-2-ylmethyl)-5-vinyl-3,10-diazabicyclo[4.3.1]decan-2-one] | 0.5 to 1 µM | 0.5 to 1 µM
C=CC1CN(Cc2ccccn2)C(=O)C2CCCC1N2S(=O)(=O)c1cccc(F)c1 (stereo in doubt) [Compound K15, (1S,5R,6R)-10-((3-fluorophenyl)sulfonyl)-3-(pyridin-2-ylmethyl)-5-vinyl-3,10-diazabicyclo[4.3.1]decan-2-one] | 0.1 to 0.5 µM | 0.1 to 0.5 µM
N[C@@H]1CNC(=O)[C@@H]2CCC[C@H]1N2S(=O)(=O)c1cc(Cl)cc(Cl)c1 [Compound H1.2, (1S,5R,6R)-5-amino-10-((3,5-dichlorophenyl)sulfonyl)-3,10-diazabicyclo[4.3.1]decan-2-one] | 1 to 5 µM | 1 to 5 µM
C=C[C@@H]1CN(Cc2ccccn2)C(=O)[C@@H]2CCC[C@H]1N2S(=O)(=O)c1ccc2[nH]c(=O)sc2c1 [Compound K4, 6-(((1S,5R,6R)-2-oxo-3-(pyridin-2-ylmethyl)-5-vinyl-3,10-diazabicyclo[4.3.1]decan-10-yl)sulfonyl)benzo[d]thiazol-2(3H)-one] | ≤ 0.1 µM | ≤ 0.1 µM
O=C1NC[C@H](O)[C@H]2CCC[C@@H]1N2S(=O)(=O)c1cc(Cl)cc(Cl)c1 [Compound G6, (1S,5S,6R)-10-((3,5-dichlorophenyl)sulfonyl)-5-hydroxy-3,10-diazabicyclo[4.3.1]decan-2-one] | 0.5 to 1 µM | 0.1 to 0.5 µM
COC[C@H]1CN(Cc2cnn[nH]2)C(=O)[C@@H]2CCC[C@H]1N2S(=O)(=O)c1ccc(-c2ncccn2)cc1 [Compound N27, (1S,5S,6R)-3-((1H-1,2,3-triazol-5-yl)methyl)-5-(methoxymethyl)-10-((4-(pyrimidin-2-yl)phenyl)sulfonyl)-3,10-diazabicyclo[4.3.1]decan-2-one] | ≤ 0.1 µM | ≤ 0.1 µM
C#CCN1C[C@H](COC)[C@H]2CCC[C@@H](C1=O)N2S(=O)(=O)c1cc(Br)cc(C(=O)OC)c1 [Compound N11, methyl 3-bromo-5-(((1S,5S,6R)-5-(methoxymethyl)-2-oxo-3-(prop-2-yn-1-yl)-3,10-diazabicyclo[4.3.1]decan-10-yl)sulfonyl)benzoate] | 0.1 to 0.5 µM | 0.1 to 0.5 µM
COCCO[C@H]1CN(CCOC)C(=O)[C@@H]2CCC[C@H]1N2S(=O)(=O)c1cc(Cl)cc(Cl)c1 [Compound H2.1, (1S,5S,6R)-10-((3,5-dichlorophenyl)sulfonyl)-5-(2-methoxyethoxy)-3-(2-methoxyethyl)-3,10-diazabicyclo[4.3.1]decan-2-one] | 0.1 to 0.5 µM | 0.1 to 0.5 µM
O=C1C2CCCC(C(CO)CN1CCO)N2S(=O)(=O)c1cc(Cl)cc(Cl)c1 (stereo in doubt) [Compound C1, (1S,5R,6R)-10-((3,5-dichlorophenyl)sulfonyl)-3-(2-hydroxyethyl)-5-(hydroxymethyl)-3,10-diazabicyclo[4.3.1]decan-2-one] | ≤ 0.1 µM | ≤ 0.1 µM
COCCN1CC(CO)C2CCCC(C1=O)N2S(=O)(=O)c1cc(Cl)cc(Cl)c1 (stereo in doubt) [Compound B13, (1S,5R,6R)-10-((3,5-dichlorophenyl)sulfonyl)-5-(hydroxymethyl)-3-(2-methoxyethyl)-3,10-diazabicyclo[4.3.1]decan-2-one] | ≤ 0.1 µM | 0.1 to 0.5 µM
O=C1[C@@H]2CCC[C@H]([C@H](CO)CN1Cc1ccccn1)N2S(=O)(=O)c1cc(Cl)cc(Cl)c1 [Compound J8, (1S,5R,6R)-10-((3,5-dichlorophenyl)sulfonyl)-5-(hydroxymethyl)-3-(pyridin-2-ylmethyl)-3,10-diazabicyclo[4.3.1]decan-2-one] | ≤ 0.1 µM | ≤ 0.1 µM
O=C1[C@@H]2CCC[C@H]([C@@H](CF)CN1Cc1ccccn1)N2S(=O)(=O)c1cc(Cl)cc(Cl)c1 [Compound M4, (1S,5S,6R)-10-((3,5-dichlorophenyl)sulfonyl)-5-(fluoromethyl)-3-(pyridin-2-ylmethyl)-3,10-diazabicyclo[4.3.1]decan-2-one] | ≤ 0.1 µM | ≤ 0.1 µM
C=CC1CN(CC(=O)O)C(=O)C2CCCC1N2S(=O)(=O)c1cc(Cl)cc(Cl)c1 (stereo in doubt) [Compound J10, 2-((1S,5R,6R)-10-((3,5-dichlorophenyl)sulfonyl)-2-oxo-5-vinyl-3,10-diazabicyclo[4.3.1]decan-3-yl)acetic acid] | 0.1 to 0.5 µM | 0.1 to 0.5 µM
COC[C@H]1CN(Cc2cnn[nH]2)C(=O)[C@@H]2CCC[C@H]1N2S(=O)(=O)c1nc2ccccc2[nH]1 [Compound N28, (1S,5S,6R)-3-((1H-1,2,3-triazol-5-yl)methyl)-10-((1H-benzo[d]imidazol-2-yl)sulfonyl)-5-(methoxymethyl)-3,10-diazabicyclo[4.3.1]decan-2-one] | ≤ 0.1 µM | ≤ 0.1 µM
COCCN1C[C@H](C(C)(C)O)[C@H]2CCC[C@@H](C1=O)N2S(=O)(=O)c1cc(Cl)cc(Cl)c1 [Compound B3, (1S,5S,6R)-10-((3,5-dichlorophenyl)sulfonyl)-5-(2-hydroxypropan-2-yl)-3-(2-methoxyethyl)-3,10-diazabicyclo[4.3.1]decan-2-one] | ≤ 0.1 µM | ≤ 0.1 µM
COCCN1C[C@H]([C@H](C)O)[C@H]2CCC[C@@H](C1=O)N2S(=O)(=O)c1cc(Cl)cc(Cl)c1 [Compound B7, (1S,5S,6R)-10-((3,5-dichlorophenyl)sulfonyl)-5-((S)-1-hydroxyethyl)-3-(2-methoxyethyl)-3,10-diazabicyclo[4.3.1]decan-2-one] | ≤ 0.1 µM | ≤ 0.1 µM
C=CC1CN(Cc2ccccn2)C(=O)C2CCCC1N2S(=O)(=O)c1cc(Br)cc(Br)c1 (stereo in doubt) [Compound K16, (1S,5R,6R)-10-((3,5-dibromophenyl)sulfonyl)-3-(pyridin-2-ylmethyl)-5-vinyl-3,10-diazabicyclo[4.3.1]decan-2-one] | ≤ 0.1 µM | ≤ 0.1 µM
O=C1[C@@H]2CCC[C@H]([C@@H](C(F)F)CN1Cc1ccccn1)N2S(=O)(=O)c1cc(Cl)cc(Cl)c1 [Compound M3, (1S,5S,6R)-10-((3,5-dichlorophenyl)sulfonyl)-5-(difluoromethyl)-3-(pyridin-2-ylmethyl)-3,10-diazabicyclo[4.3.1]decan-2-one] | ≤ 0.1 µM | ≤ 0.1 µM
C=CC1CN(Cc2ccccn2)C(=O)C2CCCC1N2S(=O)(=O)c1ccccc1 (stereo in doubt) [Compound K13, (1S,5R,6R)-10-(phenylsulfonyl)-3-(pyridin-2-ylmethyl)-5-vinyl-3,10-diazabicyclo[4.3.1]decan-2-one] | 0.5 to 1 µM | 0.5 to 1 µM
COc1ccc(OCCN2C[C@H](CCO)[C@H]3CCC[C@@H](C2=O)N3S(=O)(=O)c2cc(Cl)cc(Cl)c2)cc1OC [Compound D8, (1S,5S,6R)-10-((3,5-dichlorophenyl)sulfonyl)-3-(2-(3,4-dimethoxyphenoxy)ethyl)-5-(2-hydroxyethyl)-3,10-diazabicyclo[4.3.1]decan-2-one] | ≤ 0.1 µM | ≤ 0.1 µM
COC[C@H]1CN(Cc2cnn[nH]2)C(=O)[C@@H]2CCC[C@H]1N2S(=O)(=O)c1cccc(F)c1 [Compound N17, (1S,5S,6R)-3-((1H-1,2,3-triazol-5-yl)methyl)-10-((3-fluorophenyl)sulfonyl)-5-(methoxymethyl)-3,10-diazabicyclo[4.3.1]decan-2-one] | ≤ 0.1 µM | ≤ 0.1 µM
C=CC1CN(CCNC)C(=O)C2CCCC1N2S(=O)(=O)c1cc(Cl)cc(Cl)c1 (stereo in doubt) [Compound J19, (1S,5R,6R)-10-((3,5-dichlorophenyl)sulfonyl)-3-(2-(methylamino)ethyl)-5-vinyl-3,10-diazabicyclo[4.3.1]decan-2-one] | 0.1 to 0.5 µM | 0.1 to 0.5 µM
